This is an account of results in patent US7067622B2, “Method of the solid phase synthesis of pyrrole-imidazole polyamide” (Japan Science and Technology Agency, priority 2001, dated 2006).

For this test, the system named is DNA fragment of 450 mer. In words: DNA alkylation experiment analysed by polyacrylamide gel electrophoresis. It counts as biochemical. As for the experimental part:
(1) An DNA alkylation experiment was conducted using the above-synthesized Ac-Im-Py-β-ala-CO-Du86.
(2) A similar experiment was conducted by using Im-Im-β-ala-Py-Py-β-ala-CO-Du86. In this case, it was clarified that two imidazole portions recognized guanine in a DNA to cause a sequence-specific DNA alkylation.
(3) A similar experiment was conducted by using Ac-Im-Py-Py-γ-butyl-Py-Py-β-ala-Du86. A pyrrole-imidazole polyamide portion of this compound has a hairpin structure, and one molecule of this compound can recognize both of double strands of a DNA. Though it is known that a Py-Py pair selectively recognizes AT or TA, a Im-Py pair selectively recognizes GC, and a Py-Im pair selectively recognizes CG when the hairpin compound is combined with a DNA in accordance with the Dervan's rule, this compound includes a new pair of β-alanine pair-Im for the molecular recognition. Therefore, a new molecular recognition rule can be discovered using this compound. Accordingly, a DNA alkylation experiment was conducted to confirm the possibility. Results of the experiment are shown in FIG. 3 (DNA: pUC18III 70 nM; Reagent Concentration: 10 nM to 500 nM, 5 samples; Reaction Conditions: sodium phosphate buffer solution (1.46 mM), 37° C., 8 hours).

Where [1] appears, read: DNA fragment of 450 mer, polyacrylamide gel electrophoresis (FIG. 1, FIG. 2).

For the compound `COC(=O)c1c(C)[nH]c2c1[C@]13C[C@H]1CN(C(=O)CCNC(=O)c1cc(NC(=O)c4cc(NC(=O)CCCNC(=O)c5cc(NC(=O)c6cc(NC(=O)c7cc(NC(C)=O)cn7C)cn6C)cn5C)cn4C)cn1C)C3=CC2=O` [Ac-Im-Py-Py-γ-butyl-Py-Py-β-ala-Du86, Ac-Im-Py-Py-γ-butyl-Py-Py-β-ala-CO-Du86], under “DNA: pUC18III 70 nM, reagent 10 nM to 500 nM, sodium phosphate buffer solution (1.46 mM), 37° C., 8 hours (FIG. 3)”, the “DNA sequence recognized and base alkylated (sequence-specific DNA alkylation)” value was “recognizes 5′-(A/T)(A/T)(A/T)C(A/G)-3′ portion to selectively alkylates adenine of the 3′-end”.
As to `COC(=O)c1c(C)[nH]c2c1C13CC1CN(C(=O)CCNC(=O)c1cc(NC(=O)c4nc(NC(C)=O)cn4C)cn1C)C3=CC2=O` (stereo not drawn) [Ac-Im-Py-β-ala-CO-Du86], the “DNA sequence recognized and base alkylated (sequence-specific DNA alkylation)” value under setting [1] was “recognized 5′-TAAA-3′ and alkylated adenine of 3′-end”.
Still for that read-out and setting: as for Im-Im-β-ala-Py-Py-β-ala-CO-Du86, the entry is “recognized 5′-GGAGAAA-3′ and alkylated adenine of 3′-end”.
